Our source for the remaining activity values is PMC4648050, “Discovery of Inhibitors of Trypanosoma brucei by Phenotypic Screening of a Focused Protein Kinase Library” (Chemmedchem, 2015).

Holding throughout (assay type): biochemical, human/mammalian
Settings in all cases: compound at 10 μM, read-out: % of activity respect of the control

One experiment has as its target T1, PKC zeta (Homo sapiens, UniProt Q05513).
T1 sequence (Q05513 1-592): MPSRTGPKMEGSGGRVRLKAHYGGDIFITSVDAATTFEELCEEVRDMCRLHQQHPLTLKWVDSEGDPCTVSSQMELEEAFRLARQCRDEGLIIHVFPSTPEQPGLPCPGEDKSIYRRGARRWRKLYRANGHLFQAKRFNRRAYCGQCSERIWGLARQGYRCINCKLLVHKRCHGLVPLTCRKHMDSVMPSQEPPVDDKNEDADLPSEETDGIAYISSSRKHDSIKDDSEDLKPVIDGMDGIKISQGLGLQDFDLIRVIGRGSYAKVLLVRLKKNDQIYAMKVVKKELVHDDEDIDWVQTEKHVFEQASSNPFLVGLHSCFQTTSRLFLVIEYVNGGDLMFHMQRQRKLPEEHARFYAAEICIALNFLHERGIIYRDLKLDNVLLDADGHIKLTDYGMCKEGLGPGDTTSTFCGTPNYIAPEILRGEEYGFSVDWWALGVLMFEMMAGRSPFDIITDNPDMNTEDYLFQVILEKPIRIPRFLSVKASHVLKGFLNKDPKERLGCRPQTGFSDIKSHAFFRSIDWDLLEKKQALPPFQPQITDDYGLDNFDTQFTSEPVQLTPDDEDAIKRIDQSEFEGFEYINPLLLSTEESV
Description: Kinase panel: PKC zeta. How it is done: (§1) The DDU kinase-focused compound set contains lead-like scaffolds that are designed to target protein kinases; they have kinase hinge binding motifs. Four of the 1H-imidazopyrazinones were screened against a human/mammalian kinase panel at the University of Dundee (http://www.kinase-screen.mrc.ac.uk) at a concentration of 10 μM. At the time of testing the panel contained 79 mammalian kinases selected to provide a broad coverage of the mammalian kinome (∼500 kinases in the human genome).[3] None of the compounds were active against any of the kinases at 10 μM.

Another experiment concerns the target IR-HIS (Homo sapiens, UniProt P06213). Description: Kinase panel: IR-HIS. The procedure:
as §1

In another experiment the target is ERK2 (Homo sapiens, UniProt P28482). Description: Kinase panel: ERK2. The procedure:
as §1

For another experiment, the target named is T2, EPH-B3 (Homo sapiens, UniProt P54753).
T2 sequence (P54753 34-998): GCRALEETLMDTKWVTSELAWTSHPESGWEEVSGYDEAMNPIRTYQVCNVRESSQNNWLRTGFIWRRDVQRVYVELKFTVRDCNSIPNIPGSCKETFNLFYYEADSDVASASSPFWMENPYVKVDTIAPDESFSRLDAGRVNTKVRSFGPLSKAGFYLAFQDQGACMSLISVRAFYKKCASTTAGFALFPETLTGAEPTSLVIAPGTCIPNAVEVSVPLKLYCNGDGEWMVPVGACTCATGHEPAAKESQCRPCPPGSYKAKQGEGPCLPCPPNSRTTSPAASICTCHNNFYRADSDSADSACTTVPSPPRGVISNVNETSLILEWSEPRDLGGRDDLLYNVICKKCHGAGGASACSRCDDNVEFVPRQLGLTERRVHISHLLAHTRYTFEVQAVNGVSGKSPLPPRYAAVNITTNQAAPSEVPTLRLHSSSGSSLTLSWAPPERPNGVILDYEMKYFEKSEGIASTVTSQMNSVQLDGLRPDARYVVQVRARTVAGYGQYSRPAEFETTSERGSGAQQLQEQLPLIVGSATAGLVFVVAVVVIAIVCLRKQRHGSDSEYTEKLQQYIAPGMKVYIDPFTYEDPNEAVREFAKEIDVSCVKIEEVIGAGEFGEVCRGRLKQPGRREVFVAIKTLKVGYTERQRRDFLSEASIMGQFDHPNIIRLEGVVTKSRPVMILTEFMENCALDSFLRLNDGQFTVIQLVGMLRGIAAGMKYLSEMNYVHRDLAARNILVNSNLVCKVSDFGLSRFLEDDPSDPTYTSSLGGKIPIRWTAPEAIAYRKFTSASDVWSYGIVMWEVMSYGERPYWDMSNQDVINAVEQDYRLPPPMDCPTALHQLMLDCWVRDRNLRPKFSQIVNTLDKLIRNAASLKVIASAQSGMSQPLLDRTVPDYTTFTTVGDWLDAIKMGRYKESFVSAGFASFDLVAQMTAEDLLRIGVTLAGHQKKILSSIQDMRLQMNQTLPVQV
Description: Kinase panel: EPH-B3. How it is done: as §1

The target of a further experiment is PAK6 (Homo sapiens, UniProt Q9NQU5). Description: Kinase panel: PAK6. How it is done: as §1
Sequence of PAK6 (Q9NQU5 whole entry): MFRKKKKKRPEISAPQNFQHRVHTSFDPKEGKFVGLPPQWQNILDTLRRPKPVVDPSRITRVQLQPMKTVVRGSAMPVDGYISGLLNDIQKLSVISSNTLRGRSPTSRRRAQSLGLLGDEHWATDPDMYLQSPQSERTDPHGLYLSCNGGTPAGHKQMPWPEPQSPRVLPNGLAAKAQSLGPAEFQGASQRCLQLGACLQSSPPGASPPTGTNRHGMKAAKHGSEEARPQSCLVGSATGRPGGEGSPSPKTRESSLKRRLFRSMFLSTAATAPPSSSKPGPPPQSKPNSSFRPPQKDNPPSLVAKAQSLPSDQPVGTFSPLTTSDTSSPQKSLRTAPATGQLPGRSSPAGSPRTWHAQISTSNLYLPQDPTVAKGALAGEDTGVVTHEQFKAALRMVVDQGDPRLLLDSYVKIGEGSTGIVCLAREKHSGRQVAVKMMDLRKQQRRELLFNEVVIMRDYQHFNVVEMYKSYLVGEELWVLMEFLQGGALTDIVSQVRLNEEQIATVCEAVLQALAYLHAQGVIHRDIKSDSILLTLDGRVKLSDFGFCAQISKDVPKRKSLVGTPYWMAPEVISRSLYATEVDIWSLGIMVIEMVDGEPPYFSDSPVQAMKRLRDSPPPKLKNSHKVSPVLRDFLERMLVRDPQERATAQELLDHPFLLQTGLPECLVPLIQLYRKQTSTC
Another experiment addresses T3, TBK1 (DU12569) (Homo sapiens, UniProt Q9UHD2).
T3 sequence (Q9UHD2 1-729): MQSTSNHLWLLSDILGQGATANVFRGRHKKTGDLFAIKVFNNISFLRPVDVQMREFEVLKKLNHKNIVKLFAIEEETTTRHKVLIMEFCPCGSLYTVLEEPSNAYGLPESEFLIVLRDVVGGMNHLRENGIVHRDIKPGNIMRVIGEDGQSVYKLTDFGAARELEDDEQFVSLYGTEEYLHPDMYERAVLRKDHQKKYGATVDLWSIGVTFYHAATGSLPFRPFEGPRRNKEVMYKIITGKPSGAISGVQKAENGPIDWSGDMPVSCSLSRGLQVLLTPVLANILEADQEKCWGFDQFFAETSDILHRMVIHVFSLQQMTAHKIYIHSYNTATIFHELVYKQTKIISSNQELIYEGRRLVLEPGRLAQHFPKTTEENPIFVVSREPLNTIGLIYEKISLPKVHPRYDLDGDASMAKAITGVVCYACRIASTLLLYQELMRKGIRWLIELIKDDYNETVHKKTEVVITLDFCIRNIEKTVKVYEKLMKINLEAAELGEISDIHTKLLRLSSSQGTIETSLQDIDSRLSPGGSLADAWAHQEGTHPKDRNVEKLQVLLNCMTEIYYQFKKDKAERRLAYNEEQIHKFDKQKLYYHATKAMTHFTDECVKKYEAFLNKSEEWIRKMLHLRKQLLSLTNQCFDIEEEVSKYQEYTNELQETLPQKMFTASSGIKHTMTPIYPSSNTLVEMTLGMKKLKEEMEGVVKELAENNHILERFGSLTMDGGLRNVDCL
Description: Kinase panel: TBK1 (DU12569). How it is done:
as §1

The next experiment deals with P38b MAPK (Homo sapiens, UniProt Q15759). Description: Kinase panel: P38b MAPK. The procedure: as §1
Sequence of P38b MAPK (Q15759 whole entry): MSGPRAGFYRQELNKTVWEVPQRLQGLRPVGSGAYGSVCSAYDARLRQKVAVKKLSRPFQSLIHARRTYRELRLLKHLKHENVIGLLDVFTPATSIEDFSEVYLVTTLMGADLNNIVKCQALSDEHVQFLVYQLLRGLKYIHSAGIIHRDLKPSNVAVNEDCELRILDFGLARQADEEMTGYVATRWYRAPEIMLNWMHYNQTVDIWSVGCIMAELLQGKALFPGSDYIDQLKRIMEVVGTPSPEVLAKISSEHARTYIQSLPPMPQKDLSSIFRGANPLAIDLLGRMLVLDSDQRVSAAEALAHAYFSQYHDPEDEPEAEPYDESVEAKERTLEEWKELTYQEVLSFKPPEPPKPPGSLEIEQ

Sequence of ERK2 (P28482 whole entry): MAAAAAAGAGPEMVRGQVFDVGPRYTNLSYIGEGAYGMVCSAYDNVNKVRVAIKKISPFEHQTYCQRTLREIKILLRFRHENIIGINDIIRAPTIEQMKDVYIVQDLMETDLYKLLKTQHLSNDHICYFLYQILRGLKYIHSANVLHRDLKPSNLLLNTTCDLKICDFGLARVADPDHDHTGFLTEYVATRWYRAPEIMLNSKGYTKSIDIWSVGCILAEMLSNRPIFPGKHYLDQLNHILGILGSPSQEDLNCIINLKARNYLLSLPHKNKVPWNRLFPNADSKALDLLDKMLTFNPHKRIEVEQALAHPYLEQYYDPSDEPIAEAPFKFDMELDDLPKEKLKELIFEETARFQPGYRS
Sequence of IR-HIS (P06213 28-1382): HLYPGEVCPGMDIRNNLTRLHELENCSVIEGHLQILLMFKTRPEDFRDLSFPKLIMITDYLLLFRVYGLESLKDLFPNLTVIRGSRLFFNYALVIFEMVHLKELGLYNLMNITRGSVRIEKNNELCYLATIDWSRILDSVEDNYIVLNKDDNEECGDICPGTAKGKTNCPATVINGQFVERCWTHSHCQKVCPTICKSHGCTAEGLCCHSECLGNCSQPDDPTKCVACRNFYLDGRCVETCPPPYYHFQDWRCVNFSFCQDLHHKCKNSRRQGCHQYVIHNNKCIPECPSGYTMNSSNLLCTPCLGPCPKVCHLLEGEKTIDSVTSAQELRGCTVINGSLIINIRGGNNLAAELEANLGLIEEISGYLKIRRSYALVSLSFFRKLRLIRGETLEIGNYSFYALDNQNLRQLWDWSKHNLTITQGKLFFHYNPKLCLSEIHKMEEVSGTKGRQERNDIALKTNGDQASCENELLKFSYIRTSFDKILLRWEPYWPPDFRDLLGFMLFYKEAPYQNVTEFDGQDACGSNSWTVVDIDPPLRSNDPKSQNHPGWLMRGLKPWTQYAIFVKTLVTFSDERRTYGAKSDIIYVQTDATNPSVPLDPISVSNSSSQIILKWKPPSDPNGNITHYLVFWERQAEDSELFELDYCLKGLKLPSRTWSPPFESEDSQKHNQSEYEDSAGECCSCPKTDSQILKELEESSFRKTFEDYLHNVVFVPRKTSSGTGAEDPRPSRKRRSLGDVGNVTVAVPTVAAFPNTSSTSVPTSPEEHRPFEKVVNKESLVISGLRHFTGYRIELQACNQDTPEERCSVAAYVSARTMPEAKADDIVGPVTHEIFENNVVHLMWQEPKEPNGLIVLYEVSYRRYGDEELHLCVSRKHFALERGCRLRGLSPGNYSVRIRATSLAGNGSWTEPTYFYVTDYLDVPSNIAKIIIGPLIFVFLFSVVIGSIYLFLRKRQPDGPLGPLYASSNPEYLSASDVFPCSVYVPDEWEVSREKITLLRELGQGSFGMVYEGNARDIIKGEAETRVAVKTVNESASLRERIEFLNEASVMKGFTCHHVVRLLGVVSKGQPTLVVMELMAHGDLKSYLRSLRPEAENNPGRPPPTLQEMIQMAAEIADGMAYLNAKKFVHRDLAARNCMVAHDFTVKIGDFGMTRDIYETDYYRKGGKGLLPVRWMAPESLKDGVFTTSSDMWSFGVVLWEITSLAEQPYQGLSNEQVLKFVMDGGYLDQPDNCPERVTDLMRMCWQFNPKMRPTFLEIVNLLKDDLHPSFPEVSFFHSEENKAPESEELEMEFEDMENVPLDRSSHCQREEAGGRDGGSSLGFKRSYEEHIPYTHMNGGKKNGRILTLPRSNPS

As for `CC(c1ccccc1)n1c(=O)[nH]c2ncc(-c3ccc(F)cc3)nc21` (stereo not shown) [Compound 1], the remaining activity at 10 µM was 94% at PKC zeta; 88% at IR-HIS; 65% at ERK2; 113% on EPH-B3; 89% on PAK6; 95% at TBK1 (DU12569). Besides, the remaining activity at 10 µM at P38b MAPK was determined as 84%.
For the compound `O=c1[nH]c2ncc(-c3ccc(F)cc3)nc2n1CC1CC1` [Compound 10], the remaining activity at 10 µM came out at 90% at PKC zeta; 109% on IR-HIS; 84% on ERK2; 92% on EPH-B3; 98% on PAK6; 86% at TBK1 (DU12569). On P38b MAPK, the remaining activity at 10 µM turned out to be 101%.
Consider `O=c1[nH]c2ncc(-c3ccc(F)cc3)nc2n1C1CCCCC1` [Compound 12, 1-Cyclohexyl-6-(4-fluorophenyl)-1H-imidazo[4,5-b]pyrazin-2(3H)-one], for which the remaining activity at 10 µM on PKC zeta was found to be 90%; on IR-HIS, 119%; on ERK2 it was 41%; at EPH-B3 it was 110%; on PAK6, 106%; on TBK1 (DU12569), 90%. In addition, the remaining activity at 10 µM at P38b MAPK stood at 122%.
Turning to `C[C@H](c1ccccc1)n1c(=O)[nH]c2ncc(-c3ccccc3)nc21` [Compound 14, (R)-6-Phenyl-1-(1-phenylethyl)-1H-imidazo[4,5-b]pyrazin-2(3H)-one], the remaining activity at 10 µM was 88% on PKC zeta; 93% at IR-HIS; 121% at ERK2; 102% at EPH-B3; 88% on PAK6; 78% at TBK1 (DU12569). The remaining activity at 10 µM on P38b MAPK was found to be 95%.
